Measured values taken from patent US12419307B2, “Mixtures comprising indazole pesticides” (FMC Corporation, priority 2019, dated 2025).
Read-outs that look alike come from different tables or passages of the source.

How the values were obtained:
Format in all cases: in vivo
[1] = tested on: Potato Leafhopper (Empoasca fabae Harris); assay: Test C: Potato Leafhopper control on bean plants, insect mortality after 6 days; details: read-out: % Mortality (obs)
Method: (§1) The pest control protection afforded by the mixtures or compositions is not limited, however, to these species. The analysis of enhanced activity between the mixtures or compositions was determined using Colby's equation. The average % mortality data for the test compounds alone were inserted into the Colby's equation. If the observed (obs) average % mortality was higher than “p”, the expected (exp) % mortality, the mixture or composition had enhanced effects. If the observed average % mortality was equal to or lower than the expected mortality, the mixture or composition either had no enhanced effect. For bioassays where insect feeding damage was evaluated, enhanced activity is identified when the observed plant damage is less than the expected plant damage rating; ratings ranged between 0 (no damage) and 10 (dead plant) and each value was converted to a % plant protection. 100−(Obs Plant Damage*10)
For evaluating control of Potato Leafhopper (Empoasca fabae Harris) through contact and/or systemic means, each test unit consisted of a small open container with a 5- to 6-day-old Longio bean plant (primary leaves emerged) inside. White sand was added to the top of the soil, and one of the primary leaves was excised prior to application. Test compounds were formulated and sprayed with 3 replications as described for Test A. After spraying, the test units were allowed to dry for 1 hour before they were infested with 5 potato leafhoppers (18- to 21-day-old adults). A black, screened cap was placed on the top of each container. The test units were held for 6 days in a growth chamber at 19-21° C. and 50-70% relative humidity.

[2] = tested on: diamondback moth (Plutella xylostella L.); assay: Test E: diamondback moth control on mustard plants, contact and/or systemic, plant damage rating after 6 days
Method: as §1
For evaluating control of diamondback moth (Plutella xylostella L.) through contact and/or systemic means, each test unit consisted of a small open container with a 10- to 12-day-old mustard plant inside. Test compounds were formulated and sprayed with 3 replications as described for Test A. After spraying, the test units were allowed to dry for 1 hour before they were infested with 30-50 neonate larvae. A black, screened cap was placed on the top of each container. The test units were held for 6 days in a growth chamber at 24-25° C. and 70% relative humidity. Each test unit was then visually assessed for plant damage and rated 0-10, where 0=undamaged and 10=plant is dead; the results are listed in Tables 6a-b.

[3] = tested on: silverleaf whitefly (Bemisia argentifolii Bellows and Perring); assay: Test A: silverleaf whitefly control on cotton or soybean plants, spray, insect mortality after 13 days; details: Bemisia argentifolii, applied alone, read-out: % Mortality (obs)
Method: as §1
For evaluating control of silverleaf whitefly (Bemisia argentifolii Bellows and Perring) through contact and/or systemic means, each test unit consisted of a small open container with a 12- to 14-day-old cotton plant or 5-7 day old soybean plant inside. This was pre-infested by placing test units into cages containing adult whiteflies so that oviposition on the cotton leaves could occur. The adults were removed from the plants with an air-blast nozzle, and the test units were capped. The test units were then stored 2 to 3 days before spraying.
Test compounds were formulated using a solution containing 10% acetone, 90% water and 300 ppm Activator 90@ Spreader Lo-Foam Formula non-ionic surfactant containing alkylarylpolyoxyethylene, free fatty acids, glycols and 2-propanol (Loveland Industries, Inc.) to provide the desired concentration in ppm. Formulated test solutions were then applied in 1 mL volumes through a SUJ2 atomizer nozzle with ⅛ JJ custom body (Spraying Systems Co.) positioned 1.27 cm (0.5 inches) above the top of each test unit.
The results for all experimental compositions in this test were replicated three times. After spraying of the formulated test composition, each test unit was allowed to dry for 1 hour and the cap removed. The test units were held for 13 days in a growth chamber at 28° C. and 50-70% relative humidity.

[4] = tested on: diamondback moth (Plutella xylostella L.); assay: Test E: diamondback moth control through ingestion only, sprayed cabbage leaf tissue (Dipel), mortality after 4 days; details: Table 6c, read-out: % Mortality (obs)
Method: as §1
For evaluating control of diamondback moth (Plutella xylostella L.) through ingestion only, the test substance Dipel® (active ingredient Bacillus thuringiensis kurstaki) was formulated by diluting in water and then adding an MSO based adjuvant at 0.1% v/v. Cabbage plants were sprayed with Dipel® to runoff and allowed to dry for three hours. Once dry, plants leaf tissue was excised and one piece was placed into one well in an eight well tray. Test units were maintained in a growth chamber at 24-25° C. and 70% relative humidity.

| SMILES | mortality at 50 ppm ([1]; Table 4a) [%] | mortality at 250 ppm ([1]; Table 4a) [%] | mortality at 50 ppm ([1]; Table 4b) [%] | mortality at 250 ppm ([1]; Table 4b) [%] | mortality at 50 ppm ([1]; Table 4c) [%] | mortality at 250 ppm ([1]; Table 4c) [%] | Plant Protection (obs) ([2]; Table 6a, 50 ppm) | Plant Protection (obs) ([2]; Table 6a, 250 ppm) | Plant Protection (obs) ([2]; Table 6b, 50 ppm) | Plant Protection (obs) ([2]; Table 6b, 250 ppm) | mortality at 50 ppm ([3]; 2 h, Table 2h) [%] | mortality at 250 ppm ([3]; 2 h, Table 2h) [%] | mortality at 50 ppm ([3]; 48 h, Table 2d) [%] | mortality at 250 ppm ([3]; 48 h, Table 2d) [%] | mortality at 50 ppm ([3]; Table 2a) [%] | mortality at 250 ppm ([3]; Table 2a) [%] | mortality at 50 ppm ([3]; Table 2b) [%] | mortality at 250 ppm ([3]; Table 2b) [%] | mortality at 50 ppm ([3]; Table 2c) [%] | mortality at 250 ppm ([3]; Table 2c) [%] | further results |
| --- | --- | --- | --- | --- | --- | --- | --- | --- | --- | --- | --- | --- | --- | --- | --- | --- | --- | --- | --- | --- | --- |
| CSCC(C)(C)NC(=O)c1ccc(F)c2nn(-c3cccnc3)cc12 [Cpd 1, N-[1,1-dimethyl-2-(methylthio)ethyl]-7-fluoro-2-(3-pyridinyl)-2H-indazole-4-carboxamide] | 60 | 35.7 | 20 | 6.7 | 6.7 | 33.3 | 0.0 | 0.0 | 0.0 | 0.0 | 2.4 | 7.6 | 0 | 1.3 | 0 | 18.8 | 80 | 0 | 0 | 3.1 | mortality at 50 ppm ([3]; Table 2e): 0%; mortality at 250 ppm ([3]; Table 2e): 2.2%; mortality at 50 ppm ([3]; Table 2f): 9.3%; mortality at 250 ppm ([3]; Table 2f): 0%; mortality at 50 ppm ([3]; Table 2g): 2.6%; mortality at 250 ppm ([3]; Table 2g): 2.1% |
| C[S+]([O-])CC(C)(C)NC(=O)c1ccc(F)c2nn(-c3cccnc3)cc12 (stereo not drawn) [Cpd 2, N-[1,1-dimethyl-2-(methylsulfinyl)ethyl]-7-fluoro-2-(3-pyridinyl)-2H-indazole-4-carboxamide] | 46.7 | 86.7 | 6.7 | 85.7 | 20 | 73.3 | 0.0 | 0.0 | 0.0 | 0.0 | 0 | 2.9 | 7.5 | 28 | 10.9 | 74.5 | 80 | 53.3 | 11.8 | 75.4 | mortality at 50 ppm ([3]; Table 2e): 17.8%; mortality at 250 ppm ([3]; Table 2e): 90.2%; mortality at 50 ppm ([3]; Table 2f): 15.7%; mortality at 250 ppm ([3]; Table 2f): 90.6%; mortality at 50 ppm ([3]; Table 2g): 31.1%; mortality at 250 ppm ([3]; Table 2g): 91.7% |
| CC(C)(CS(C)(=O)=O)NC(=O)c1ccc(F)c2nn(-c3cccnc3)cc12 [Cpd 3, N-[1,1-dimethyl-2-(methylsulfonyl)ethyl]-7-fluoro-2-(3-pyridinyl)-2H-indazole-4-carboxamide] | 0 | 0 | 13.3 | 0 | 6.7 | 0 | 0.0 | 0.0 | 0.0 | 0.0 | 0 | 0 | 1.2 | 1.1 | 25 | 1.6 | 0 | 0 | 16.1 | 26.7 | mortality at 50 ppm ([3]; Table 2e): 1.3%; mortality at 250 ppm ([3]; Table 2e): 1.2%; mortality at 50 ppm ([3]; Table 2f): 21.2%; mortality at 250 ppm ([3]; Table 2f): 25.3%; mortality at 50 ppm ([3]; Table 2g): 18%; mortality at 250 ppm ([3]; Table 2g): 27.7% |
| CC1(NC(=O)c2cccc3nn(-c4cccnc4)cc23)CC1 [Cpd 4, N-(1-methylcyclopropyl)-2-(3-pyridinyl)-2H-indazole-4-carboxamide] | 7.1 | 6.7 | 0 | 14.3 | 26.7 | 0 | 0.0 | 0.0 | 0.0 | 0.0 | 0.9 | 9.2 | 4.9 | 8.3 | 5.9 | 11.1 | 46.7 | 20 | 16.1 | 20.5 | mortality at 50 ppm [4]: 12.5%; mortality at 250 ppm [4]: 17%; mortality at 50 ppm ([3]; Table 2e): 29%; mortality at 250 ppm ([3]; Table 2e): 38.3%; mortality at 50 ppm ([3]; Table 2f): 15%; mortality at 250 ppm ([3]; Table 2f): 17.9%; mortality at 50 ppm ([3]; Table 2g): 30.6%; mortality at 250 ppm ([3]; Table 2g): 23.1%; mortality at 50 ppm ([3]; Table 2i): 7%; mortality at 250 ppm ([3]; Table 2i): 8% |
| O=C(NC1(C(F)F)CC1)c1cccc2nn(-c3cccnc3)cc12 [Cpd 5, N-[1-(difluoromethyl)cyclopropyl]-2-(3-pyridinyl)-2H-indazole-4-carboxamide] | 0 | 26.7 | 0 | 6.7 | 6.7 | 26.7 | 0.0 | 0.0 | 0.0 | 0.0 | 0 | 6.9 | 8.9 | 11.7 | 17 | 13.5 | 49 | 19.2 | 56.5 | 41.1 | mortality at 50 ppm [4]: 21%; mortality at 250 ppm [4]: 25%; mortality at 50 ppm ([3]; Table 2e): 56.3%; mortality at 250 ppm ([3]; Table 2e): 11.2%; mortality at 50 ppm ([3]; Table 2f): 84.4%; mortality at 250 ppm ([3]; Table 2f): 55.1%; mortality at 50 ppm ([3]; Table 2g): 30%; mortality at 250 ppm ([3]; Table 2g): 73.4%; mortality at 50 ppm ([3]; Table 2i): 0%; mortality at 250 ppm ([3]; Table 2i): 0% |
